Assay results as given in patent US20150203474A1, “SOLID FORMS COMPRISING INHIBITORS OF HCV NS5A, COMPOSITIONS THEREOF, AND USES THEREWITH” (PRESIDIO PHARMACEUTICALS ,INC., priority 2012, published 2015).
Like-named read-outs stand apart in the source and are kept apart here.

Assay: PK study of Form A of Compound I in rats
Format: in vivo
Details: male, Sprague-Dawley, rat, plasma, po, 75 mg/kg, single PO dose of 75 mg/kg, male SD rats
Experimental: The pharmacokinetics (PK) properties of Form A of Compound I and Form I of Compound II were determined in a series of comprehensive experiments in preclinical species including Sprague-Dawley rats, beagle dogs, cynomolgus monkeys. In those studies, the Form A crystalline salt of Compound I (and Form I crystalline salt of Compound II) was formulated in saline, 0.5% MC in saline or other commonly used suitable formulation vehicles to give a clear solution or as a suspension or a paste depending on the concentration intended to reach and the choice of vehicles. Dosing was by oral gavage. Blood samples were drawn and placed into individual tube containing K2EDTA. Blood samples were put on ice and centrifuged (2000 g for 5 minutes at 4° C.) to obtain plasma within 15 minutes after collection. Plasma samples were stored at approximately −80° C. freezer until analysis. For most of these analyses, Compound I (and Compound II) and the internal standard (IS) were extracted from rat, monkey or dog plasma by protein precipitation, and the extract was evaporated, reconstituted and analyzed using HPLC with tandem mass spectrometric detection (HPLC-MS/MS), see examples for further details. Calibration was accomplished by weighted linear regression of the ratio of the peak area of analyte to that of the added internal standard (IS). For the validated assay in rat and monkey EDTA plasma, the Lower Limit of Quantitation (LLOQ) for both compound 1 and 2 was 5.00 ng/mL, and the assay was linear from 5.00-1,000 ng/mL. PK parameters were calculated by non-compartmental analysis using WinNonlin (versions 4.1 through 6.1). 1) Weighed 922.80 mg of Form A of Compound I (equivalent to 824.603 mg of free base) into a clean tube. 2) Added 54.974 mL of 0.5% methylcellulose in saline into the tube containing the Form A of Compound I, vortexed for 3-5 min and sonicated for 10-15 min. The dosing solution was a light yellow and clear solution. Sprague Dawley rats, ˜7-9 weeks old and weighing ˜210-270 g, were given the above dosing solution at 5 mL/kg. […] Sample Preparation for Analysis: An aliquot of 30 μL of plasma sample was mixed with 30 μL of the IS (200 ng/mL), then mixed with 150 μL ACN for protein precipitation. The mixture was vortexed for 2 min and centrifuged at 12000 rpm for 5 min. An aliquot of 1 μL of supernatant was injected onto HPLC-MS/MS, if no further dilution was needed. To prepare a 10-fold diluted plasma samples, an aliquot of 10 μL plasma sample was mixed with 90 μL blank plasma to obtain the diluted plasma samples. The extraction procedure for diluted samples was as the same as that used for the non-diluted samples. • Compound Concentration Quantitation: • Instrument HPLC-MS/MS-12 (API4000), on positive ionization mode, ESI+ • HPLC Conditions Mobile Phase A: H2O—0.025% formic acid (FA)—1 mM NH4OAc • Mobile Phase B: MeOH—0.025% FA—1 mM NH4OAc Pharmacokinetic analysis was done using the WinNonlin software (Version 5.3, Pharsight Corporation, California, USA). Any concentration data under LLOQ (LLOQ=1.00 ng/mL in rat plasma and 3.00 ng/mL in rat liver homogenate) were replaced with “BQL”.

[1] = Mean (N = 3), read-out: mean plasma concentration
[2] = Rat #1, read-out: plasma concentration
[3] = Rat #2, read-out: plasma concentration
[4] = Rat #3, read-out: plasma concentration

Compound: COC(=O)N[C@H](C(=O)N1CCC[C@H]1c1ncc(-c2ccc3cc(-c4ccc5nc([C@@H]6CCCN6C(=O)[C@@H](NC(=O)OC)C(C)C)[nH]c5c4)ccc3c2)[nH]1)C(C)C [Form A of Compound I]
- concentration at 1 h [1]: 5970 ng/mL
- concentration at 1 h [2]: 6210 ng/mL
- concentration at 1 h [3]: 5480 ng/mL
- concentration at 1 h [4]: 6230 ng/mL
- concentration at 2 h [1]: 7430 ng/mL
- concentration at 2 h [2]: 8030 ng/mL
- concentration at 2 h [3]: 7890 ng/mL
- concentration at 2 h [4]: 6380 ng/mL
- concentration at 3 h [1]: 8340 ng/mL
- concentration at 3 h [2]: 5670 ng/mL
- concentration at 3 h [3]: 8060 ng/mL
- concentration at 3 h [4]: 11300 ng/mL
- concentration at 4 h [1]: 3930 ng/mL
- concentration at 4 h [2]: 3680 ng/mL
- concentration at 4 h [3]: 5170 ng/mL
- concentration at 4 h [4]: 2930 ng/mL
- concentration at 6 h [1]: 2850 ng/mL
- concentration at 6 h [2]: 2780 ng/mL
- concentration at 6 h [3]: 3370 ng/mL
- concentration at 6 h [4]: 2400 ng/mL
- concentration at 8 h [1]: 531 ng/mL
- concentration at 8 h [2]: 498 ng/mL
- concentration at 8 h [3]: 704 ng/mL
- concentration at 8 h [4]: 390 ng/mL
- concentration at 12 h [1]: 176 ng/mL
- concentration at 12 h [2]: 188 ng/mL
- concentration at 12 h [3]: 277 ng/mL
- concentration at 12 h [4]: 63.6 ng/mL
- concentration at 24 h [1]: 8.07 ng/mL
- concentration at 24 h [2]: 8.12 ng/mL
- concentration at 24 h [3]: 7.95 ng/mL
- concentration at 24 h [4]: 8.15 ng/mL
